Measured values reported in patent US10851053B2, “Chemical compounds” (GlaxoSmithKline Intellectual Property Development Limited, priority 2016, dated 2020).
Counter-ions that a name gives are not always drawn.

Test system: ATF4 translation (ATF4 pathway), SH-SY5Y-ATF4-NanoLuc cells
Test: ATF4 cell based assay (ATF4 5'-UTR NanoLuc luciferase reporter, Thapsigargin induced cellular stress)
Details: SH-SY5Y-ATF4-NanoLuc cells challenged with Thapsigargin for 14-18 hours; average of two or more experimental runs; read-out: average ATF4 pathway inhibitory activity (IC50)

IC50: < 100 nM
SMILES: O=C(COc1ccc(Cl)cc1)NC1[C@H]2CN(C(CCOc3ccc(Cl)cc3)C(=O)O)C[C@@H]12 (stereo partly drawn) [Example 82, 4-(4-chlorophenoxy)-2-((1R,5S)-6-(2-(4-chlorophenoxy)acetamido)-3-azabicyclo[3.1.0]hexan-3-yl)butanoic acid hydrochloride]
